Measured values from patent US4357326A, “Multi-glucopyranosyl-fructofuranosyl-galactopyranosyl-glucopyranoside sulfate salts and methods of use” (American Cyanamid Company, priority 1981, dated 1982).
Structures can show the parent of a compound that is named as a salt.

Assays:
[1] = test system: late components of human complement (C3-C9); experiment: Test Code 035 (C3-C9 inhibitor), lysis of EAC 142; type: biochemical; settings: in vitro; serial twofold dilution assay, higher well number indicates higher activity
Text: (§1) An active inhibitor protects C2 from C1 and C4; (ii) Test Code 035 (C3-C9 inhibitor)--This test determines the ability of the late components of human complement (C3-C9) to lyse EAC 142 in the presence of appropriate dilutions of the test compound. An active inhibitor protects EAC 142 from lysis by human C3-C9; (iii) Test Code 036 (C-Shunt inhibitor)--In this test human erythrocytes rendered fragile are lysed in autologous serum via the shunt pathway activated by cobra venom factor in the presence of appropriate dilutions of the test compound. Inhibition of the shunt pathway results in failure of lysis; (iv) Cap 50 Test--Here, appropriate amounts of the test compound are added to a pool of guinea pig serum in vitro, after which the complement level is determined in undiluted serum by the serum capillary tube assay of U.S. Pat. No. 3,876,376. The concentration of compound inhibiting 50% is reported; and (v) Guinea Pig Intraperitoneal Test (GPIP)--Guinea pigs weighing about 300 g are dosed intraperitoneally (i.p.) with 200 mg/kg of the test compound dissolved in saline and adjusted to pH 7-8. Approximately 0.4 ml blood samples, taken by orbital sinus puncture 30 minutes and one hour after injections, are collected directly into centrifuge tubes; 5 ml blood samples, taken by decapitation 2 hours after injection are collected directly into disPo® beakers. The samples were allowed to clot, centrifuged, and the resultant sera were assayed for complement activity using the capillary complement assay referred to above. Percent inhibition is calculated by comparison with simultaneous controls. The results of the GPIP appear in Table I together with results of Test Code 026, 035, 036 and Cap 50.

[2] = test system: shunt pathway activated by cobra venom factor; experiment: Test Code 036 (C-Shunt inhibitor), lysis of fragile human erythrocytes in autologous serum; type: cell-based; settings: in vitro; serial twofold dilution assay, higher well number indicates higher activity
Text: as §1

activated human C1 = activated human C1 (Homo sapiens, UniProt P09871); experiment: Test Code 026 (C1 inhibitor); type: biochemical; settings: in vitro; serial twofold dilution assay, higher well number indicates higher activity
Text: as §1

[3] = test system: total hemolytic complement activity of human serum; settings: in vitro and in vivo, judged by reduction in total hemolytic complement activity; cited from earlier work
[4] = test system: complement activity of sera; experiment: Guinea Pig Intraperitoneal Test (GPIP); type: in vivo; settings: 200 mg/kg i.p.
Text: as §1

Compound | C-Late 035 Wells [1] | C-Shunt Inhibition 036 Wells [2] | C1 026 Wells (activated human C1) | anticomplementary activity on human serum [3] | In vivo Activity (Guinea pigs) % Inhibition Intraperitoneal, 30 minutes ([4]; blood sample 30 minutes after injection) | In vivo Activity (Guinea pigs) % Inhibition Intraperitoneal, 60 minutes ([4]; blood sample 60 minutes after injection) | In vivo Activity (Guinea pigs) % Inhibition Intraperitoneal, 120 minutes ([4]; blood sample 120 minutes after injection)
O=S(=O)(O)OC[C@H]1O[C@H](OC[C@H]2O[C@H](O[C@]3(COS(=O)(=O)O)O[C@H](CO[C@@H]4O[C@H](COS(=O)(=O)O)[C@@H](O[C@H]5O[C@H](COS(=O)(=O)O)[C@@H](O[C@H]6O[C@H](COS(=O)(=O)O)[C@@H](O[C@H]7O[C@H](COS(=O)(=O)O)[C@@H](O[C@H]8O[C@H](COS(=O)(=O)O)[C@@H](O[C@H]9O[C@H](COS(=O)(=O)O)[C@@H](O[C@H]%10O[C@H](COS(=O)(=O)O)[C@@H](OS(=O)(=O)O)[C@H](OS(=O)(=O)O)[C@H]%10OS(=O)(=O)O)[C@H](OS(=O)(=O)O)[C@H]9OS(=O)(=O)O)[C@H](OS(=O)(=O)O)[C@H]8OS(=O)(=O)O)[C@H](OS(=O)(=O)O)[C@H]7OS(=O)(=O)O)[C@H](OS(=O)(=O)O)[C@H]6OS(=O)(=O)O)[C@H](OS(=O)(=O)O)[C@H]5OS(=O)(=O)O)[C@H](OS(=O)(=O)O)[C@H]4OS(=O)(=O)O)[C@@H](OS(=O)(=O)O)[C@@H]3OS(=O)(=O)O)[C@H](OS(=O)(=O)O)[C@@H](OS(=O)(=O)O)[C@@H]2OS(=O)(=O)O)[C@H](OS(=O)(=O)O)[C@@H](OS(=O)(=O)O)[C@H]1OS(=O)(=O)O [drawing 26, O-α-D-Glucopyranosyl(1→4)-[O-α-D-glucopyranosyl(1→4)]5 -O-β-D-glucopyranosyl(1→6)-β-D-fructofuranosyl-O-α-D-galactopyranosyl(1→6)-α-D-glucopyranoside dotriacontakis(H-sulfate), dotriacontasodium salt] | 3 Wells | 5 Wells | 9 Wells | – | – | – | –
pentosanpolysulfoester | – | – | – | has an anticomplementary activity on human serum, both in vitro and in vivo | – | – | –
O=S(=O)(O)OC[C@H]1O[C@H](OC[C@H]2O[C@H](O[C@]3(COS(=O)(=O)O)O[C@H](CO[C@@H]4O[C@H](COS(=O)(=O)O)[C@@H](O[C@H]5O[C@H](COS(=O)(=O)O)[C@@H](O[C@H]6O[C@H](COS(=O)(=O)O)[C@@H](OS(=O)(=O)O)[C@H](OS(=O)(=O)O)[C@H]6OS(=O)(=O)O)[C@H](OS(=O)(=O)O)[C@H]5OS(=O)(=O)O)[C@H](OS(=O)(=O)O)[C@H]4OS(=O)(=O)O)[C@@H](OS(=O)(=O)O)[C@@H]3OS(=O)(=O)O)[C@H](OS(=O)(=O)O)[C@@H](OS(=O)(=O)O)[C@@H]2OS(=O)(=O)O)[C@H](OS(=O)(=O)O)[C@@H](OS(=O)(=O)O)[C@H]1OS(=O)(=O)O [drawing 24, O-α-D-Glucopyranosyl(1→4)-O-α-D-glucopyranosyl(1→4)-O-β-D-glucopyranosyl(1→6)-β-D-fructofuranosyl-O-α-D-galactopyranosyl(1→6)-α-D-glucopyranoside eicosakis(H-sulfate), eicosasodium salt] | 1 Wells | 6 Wells | 9 Wells | – | 49% | 67% | 78%
O=S(=O)(O)OC[C@H]1O[C@H](OC[C@H]2O[C@H](O[C@]3(COS(=O)(=O)O)O[C@H](CO[C@@H]4O[C@H](COS(=O)(=O)O)[C@@H](O[C@H]5O[C@H](COS(=O)(=O)O)[C@@H](O[C@H]6O[C@H](COS(=O)(=O)O)[C@@H](OS(=O)(=O)O)[C@H](OS(=O)(=O)O)[C@H]6OS(=O)(=O)O)[C@H](OS(=O)(=O)O)[C@H]5OS(=O)(=O)O)[C@H](OS(=O)(=O)O)[C@H]4OS(=O)(=O)O)[C@@H](OS(=O)(=O)O)[C@@H]3OS(=O)(=O)O)[C@H](OS(=O)(=O)O)[C@@H](OS(=O)(=O)O)[C@@H]2OS(=O)(=O)O)[C@H](OS(=O)(=O)O)[C@@H](OS(=O)(=O)O)[C@H]1OS(=O)(=O)O [drawing 23, O-α-D-Glucopyranosyl(1→4)-O-α-D-glucopyranosyl(1→4)-O-β-D-glucopyranosyl(1→6)-β-D-fructofuranosyl-O-α-D-galactopyranosyl(1→6)-α-D-glucopyranoside eicosakis(H-sulfate) eicosasalt with trimethylamine] | 2 Wells | 5 Wells | 9 Wells | – | – | – | –
O=S(=O)(O)OC[C@H]1O[C@H](OC[C@H]2O[C@H](O[C@]3(COS(=O)(=O)O)O[C@H](CO[C@@H]4O[C@H](COS(=O)(=O)O)[C@@H](O[C@H]5O[C@H](COS(=O)(=O)O)[C@@H](O[C@H]6O[C@H](COS(=O)(=O)O)[C@@H](O[C@H]7O[C@H](COS(=O)(=O)O)[C@@H](O[C@H]8O[C@H](COS(=O)(=O)O)[C@@H](O[C@H]9O[C@H](COS(=O)(=O)O)[C@@H](O[C@H]%10O[C@H](COS(=O)(=O)O)[C@@H](OS(=O)(=O)O)[C@H](OS(=O)(=O)O)[C@H]%10OS(=O)(=O)O)[C@H](OS(=O)(=O)O)[C@H]9OS(=O)(=O)O)[C@H](OS(=O)(=O)O)[C@H]8OS(=O)(=O)O)[C@H](OS(=O)(=O)O)[C@H]7OS(=O)(=O)O)[C@H](OS(=O)(=O)O)[C@H]6OS(=O)(=O)O)[C@H](OS(=O)(=O)O)[C@H]5OS(=O)(=O)O)[C@H](OS(=O)(=O)O)[C@H]4OS(=O)(=O)O)[C@@H](OS(=O)(=O)O)[C@@H]3OS(=O)(=O)O)[C@H](OS(=O)(=O)O)[C@@H](OS(=O)(=O)O)[C@@H]2OS(=O)(=O)O)[C@H](OS(=O)(=O)O)[C@@H](OS(=O)(=O)O)[C@H]1OS(=O)(=O)O [drawing 25, O-α-D-Glucopyranosyl(1→4)-[O-α-D-glucopyranosyl(1→4)]5 -O-β-D-glucopyranosyl(1→6)-β-D-fructofuranosyl-O-α-D-galactopyranosyl(1→6)-α-D-glucopyranoside dotriacontakis(H-sulfate), dotriacontasalt with trimethylamine] | 1 Wells | 4 Wells | 9 Wells | – | – | – | –
